# Measured values reported in patent US20120309087A1, “CANCER THERAPY” (University Court of The University of Dundee, priority 2006, published 2012).
# pIC50: −log10 of the molar value. Values joined by “and” are separate entries in the source; they are usually repeats but may differ in a detail not shown here. Identical values can stand only once.
# Columns and labels:
# [1] = system: AKR1C protein in Caco-2 cells; assay: AKR1C protein in Caco-2 cells (Western blotting); format: cell-based, human; details: 24 hrs
# Experimental: (§1) Method: AREc32 cells were seeded out in 96 well plates and treated with DMSO (control), tBHQ (50 μM), tBHQ+BTB09463 (5 μM) or tBHQ+Retinoic acid (1 μM). After 24 hours incubation, cells were washed and lysed before measuring luciferase activity. BTB09463 is 1-{4-[(3,4-dichlorobenzyl)oxy]phenyl}ethan-1-one. […] Method: AREc32 cells were seeded out in 96 well plates and dosed with BTB09463 (2.5, 5 or 10 μM) for 0, 24 or 48 hrs before treatment with tBHQ (50 μM). 24 hours after the addition of tBHQ, cells were washed and lysed before measuring luciferase activity. […] Method: ARE c32 cells were seeded out in 96 well plates and treated with DMSO (control), tBHQ (50 μM), tBHQ+retinoid (0.25, 0.5 and 1 μM). After 24 hours incubation, cells were washed and lysed before measuring luciferase activity. […] See FIG. 16 Method: A. Caco-2 cells were treated with the known ARE-gene inducer sulforaphane (5 μM), either alone or concomitantly with BTB09463 (5 μM) or Retinoic acid (1 μM). After 24 hrs, cell lysates were prepared and Western blotting performed to measure the levels of AKR1C protein. B. MCF7 cells were treated with sulforaphane (5 μM), either alone or concomitantly with BTB09463 (5 μM). After 24 hrs, cell lysates were prepared and Western blots performed to detect the levels of AKR1C and NQO1; GAPDH was used as a loading control in MCF7 cells. […] Method: Caco-2 cells were treated with DMSO (control), BTB09463 (5 μM), sulforaphane (5 μM) or a combination of sulforaphane plus BTB09463. After 24 hrs treatment, cells were harvested and RNA isolated. cDNA for each sample was generated by reverse transcription and subsequently used in real time PCR analysis of gene transcription (TaqMan analysis) for the ARE-driven genes AKR1C1 and NQO1. Data was normalised to the internal control 18S RNA and the relative levels of AKR1C1 and NQO1 calculated using the comparative CT method. […] Method: MCF7 cells were treated with the known ARE-gene inducer sulforaphane (5 μM), either alone or with various retinoids (0.5 μM). After 24 hrs, cell lysates were prepared and Western blots were performed to detect the levels of AKR1C protein present. […] See FIG. 19 Method: ARE reporter cell line AREc23 was seeded into 96 well plates and treated with a previously determined non-toxic concentration of cytotoxic drug. After 24 hours incubation, cells were washed and lysed before measuring luciferase activity. […] See FIG. 20a Method: ARE reporter cell line AREc23 was seeded into 96 well plates and treated with DMSO (control), Carmustine (100 μM), Carmustine+BTB09463 (5 μM) or Carmustine+Retinoic acid (5 μM) After 24 hours incubation, cells were washed and lysed before measuring luciferase activity. […] After 24 hours incubation, cells were washed and lysed before measuring luciferase activity. […]
# [2] = system: ARE-driven luciferase activity in AREc32 cells; assay: Induction of ARE-driven luciferase activity in stable AREc32 reporter cells; format: cell-based, human
# A549 cells = assay: Cytotoxicity in A549 cells (ATP levels, 72 h); format: cell-based, human; details: Homo sapiens, single agent
# MCF7 cells = assay: cells; format: cell-based; details: Homo sapiens, single agent
# [3] = system: AKR1C mRNA in AREc32 cells; assay: AKR1C mRNA in AREc32 cells (TaqMan); details: 24 h
# [4] = system: AKR1C and NQO1 protein in MCF7 cells; assay: AKR1C and NQO1 protein in MCF7 cells (Western blots); format: cell-based, human; details: 24 hrs
# Experimental: Method: AREc32 cells were seeded out in 96 well plates and treated with DMSO (control), tBHQ (50 μM), tBHQ+BTB09463 (5 μM) or tBHQ+Retinoic acid (1 μM). After 24 hours incubation, cells were washed and lysed before measuring luciferase activity. BTB09463 is 1-{4-[(3,4-dichlorobenzyl)oxy]phenyl}ethan-1-one. […] Method: AREc32 cells were seeded out in 96 well plates and dosed with BTB09463 (2.5, 5 or 10 μM) for 0, 24 or 48 hrs before treatment with tBHQ (50 μM). 24 hours after the addition of tBHQ, cells were washed and lysed before measuring luciferase activity. […] Method: ARE c32 cells were seeded out in 96 well plates and treated with DMSO (control), tBHQ (50 μM), tBHQ+retinoid (0.25, 0.5 and 1 μM). After 24 hours incubation, cells were washed and lysed before measuring luciferase activity. […] See FIG. 16 Method: A. Caco-2 cells were treated with the known ARE-gene inducer sulforaphane (5 μM), either alone or concomitantly with BTB09463 (5 μM) or Retinoic acid (1 μM). After 24 hrs, cell lysates were prepared and Western blotting performed to measure the levels of AKR1C protein. B. MCF7 cells were treated with sulforaphane (5 μM), either alone or concomitantly with BTB09463 (5 μM). After 24 hrs, cell lysates were prepared and Western blots performed to detect the levels of AKR1C and NQO1; GAPDH was used as a loading control in MCF7 cells. […] Method: Caco-2 cells were treated with DMSO (control), BTB09463 (5 μM), sulforaphane (5 μM) or a combination of sulforaphane plus BTB09463. After 24 hrs treatment, cells were harvested and RNA isolated. cDNA for each sample was generated by reverse transcription and subsequently used in real time PCR analysis of gene transcription (TaqMan analysis) for the ARE-driven genes AKR1C1 and NQO1. Data was normalised to the internal control 18S RNA and the relative levels of AKR1C1 and NQO1 calculated using the comparative CT method. […] Method: MCF7 cells were treated with the known ARE-gene inducer sulforaphane (5 μM), either alone or with various retinoids (0.5 μM). After 24 hrs, cell lysates were prepared and Western blots were performed to detect the levels of AKR1C protein present. […] See FIG. 19 Method: ARE reporter cell line AREc23 was seeded into 96 well plates and treated with a previously determined non-toxic concentration of cytotoxic drug. After 24 hours incubation, cells were washed and lysed before measuring luciferase activity. […] See FIG. 20a Method: ARE reporter cell line AREc23 was seeded into 96 well plates and treated with DMSO (control), Carmustine (100 μM), Carmustine+BTB09463 (5 μM) or Carmustine+Retinoic acid (5 μM) After 24 hours incubation, cells were washed and lysed before measuring luciferase activity. […] After 24 hours incubation, cells were washed and lysed before measuring luciferase activity. B. Modified repeat of experiment A, with cells being pretreated with L-buthionine-(SR)-sulfoximine (BSO), an inhibitor of enzymes in the glutathione synthesis pathway. After 24 hours incubation, cells were washed and lysed before measuring luciferase activity. […] Method: Caco-2 cells were treated for 24 hrs with DMSO (control), Carmustine (100 μM), Carmustine+BTB09463 (5 μM). After 24 hrs, cell lysates were prepared and Western blots to detect the levels of AKR1C. […] Method: MCF7 cells were treated for 24 hrs with DMSO (control; Lane 1), Sulforaphane (5 μM) (Lane 2), Carmustine (100 μM) (Lane 3), Carmustine+BTB09463 (5 μM) (Lane 5). (Lane 4 represents experimental conditions irrelevant to the application). After 24 hrs, cell lysates were prepared and Western blots to detect the levels of Nrf2, NQO1 and AKR1C proteins.
# [5] = system: AKR1C1, NQO1, GCLC, GCLM mRNA in A549 cells; assay: Constitutive mRNA of ARE-driven genes in A549 cells (Taqman); format: cell-based, human; details: 24 hrs
# [6] = system: AKR1C protein in LS174 cells; assay: AKR1C protein in LS174 cells; format: cell-based, human; details: data not shown
# [7] = system: ARE-driven luciferase activity in AREc32 cells; assay: Antagonism of induced ARE-driven luciferase activity in AREc32 cells; format: cell-based, human
# [8] = system: AKR1C1 and NQO1 mRNA in Caco-2 cells; assay: AKR1C1 and NQO1 mRNA in Caco-2 cells (TaqMan); format: cell-based, human; details: sulforaphane 5 μM + BTB09463 5 μM, 24 hrs
# Experimental: as §1
# Fas-induced killing = details: WO 01/57189; cited from earlier work
# [9] = system: ARE reporter system in CHO cells; assay: Transient pGL-GSTA2.41bp-ARE luciferase reporter in CHO cells; details: 50 μM tBHQ
# Experimental: (§2) The Dual-luciferase Reporter Assay System (Promega) was used to examine reporter gene activity in transiently transfected cells. Briefly, cells were seeded at a density of 2×10^5 cells/well in 24-well plates and grown in the appropriate medium. After overnight incubation, the cells were transiently transfected with various ARE-luciferase reporter plasmids. The plasmid pRL-TK, encoding Renilla luciferase was used to control for transfection efficiency. Transfections were performed using Lipofectamine 2000 Reagent (Lifer Technologies Inc. Ltd., Coventry, UK) according to the manufacture's instructions. Following transfection, the culture medium was replaced 24 h later with fresh growth medium containing 50 μM tBHQ (in a solution giving a final concentration of 0.1% v/v dimethyl sulfoxide (DMSO)), which was prepared immediately before each experiment. For control experiments, vehicle alone (0.1% v/v DMSO) was added to the growth medium. Cells were left for 24 h to respond to xenobiotics before being harvested and the firefly and Renilla luciferase activities in cell lysates were measured using a luminometer (Turner Designs Model TD-20/20, Promega) following addition of Luciferase Assay Reagent II (Promega). […] The relative luciferase activity was calculated by normalizing firefly luciferase activity to that of Renilla luciferase. […]
# [10] = system: ARE-green fluorescent protein (GFP) reporter HepG2 cell line; details: 90 μM tBHQ; HepG2/GFP-B; cited from earlier work
# [11] = system: ARE reporter system in Hepa1 cells; assay: Transient pGL-GSTA2.41bp-ARE luciferase reporter in Hepa1 cells; details: 50 μM tBHQ
# Experimental: as §2
# [12] = system: ARE reporter system in MCF7 cells; assay: Transient pGL-GSTA2.41bp-ARE luciferase reporter in MCF7 cells
# Experimental: The Dual-luciferase Reporter Assay System (Promega) was used to examine reporter gene activity in transiently transfected cells. Briefly, cells were seeded at a density of 2×10^5 cells/well in 24-well plates and grown in the appropriate medium. After overnight incubation, the cells were transiently transfected with various ARE-luciferase reporter plasmids. The plasmid pRL-TK, encoding Renilla luciferase was used to control for transfection efficiency. Transfections were performed using Lipofectamine 2000 Reagent (Lifer Technologies Inc. Ltd., Coventry, UK) according to the manufacture's instructions. Following transfection, the culture medium was replaced 24 h later with fresh growth medium containing 50 μM tBHQ (in a solution giving a final concentration of 0.1% v/v dimethyl sulfoxide (DMSO)), which was prepared immediately before each experiment. For control experiments, vehicle alone (0.1% v/v DMSO) was added to the growth medium. Cells were left for 24 h to respond to xenobiotics before being harvested and the firefly and Renilla luciferase activities in cell lysates were measured using a luminometer (Turner Designs Model TD-20/20, Promega) following addition of Luciferase Assay Reagent II (Promega). After quenching the reaction, the Renilla luciferase reaction was initiated by adding Stop & Glo Reagent (Promega). The relative luciferase activity was calculated by normalizing firefly luciferase activity to that of Renilla luciferase.
# In order to choose an appropriate cell system for the generation of a stable reporter cell line, pGL-GSTA2.41 bp-ARE was transfected into HepG2, MCF7, CHO, Hepa1 cells.
# [13] = system: ARE reporter system in HepG2 cells; assay: Transient pGL-GSTA2.41bp-ARE luciferase reporter in HepG2 cells; details: 50 μM tBHQ
# Experimental: as §2
# [14] = Carmustine 100 μM + BTB09463 5 μM
# [15] = HepG2 cells treated with DMSO set at 1
structure (smiles),measurement,setting,value
"O=NN(CCCl)C(=O)NCCCl [BCNU, carmustine]",AKR1C protein expression,[1]; Carmustine 100 μM,massive induction
same,effect on luciferase activity in AREc32 cells (in words),"[2]; 24 h, sub-lethal doses, no BSO",stronger inducing agent
same,Type of modulation,"[2]; AREc32, 24 h, grouping of drugs by effect on luciferase activity",Weak inducers
same,induction of ARE-driven luciferase activity,"[2]; previously determined non-toxic concentration, 24 hours",4.5 fold
same,pIC50,A549 cells,< 2.82
same,pIC50,MCF7 cells,3.54
same,induction of AKR1C mRNA,"[3]; without BSO, 100 μM BCNU",3 fold
same,NQO1 and AKR1C protein expression,[4]; Carmustine 100 μM,caused over-expression of NQO1 and AKR1C protein
"CC(=O)c1ccc(OCc2ccc(Cl)c(Cl)c2)cc1 [BTB09463, 1-{4-[(3,4-dichlorobenzyl)oxy]phenyl}ethan-1-one]",constitutive expression of AKR1C1 mRNA,"[5]; BTB09463 1, 5, 20, 40 μmol/l or retinoids 0.050, 0.20, 0.50, 2.0 μmol/l",inhibited the constitutive expression of AKR1C1 in a concentration-dependent manner
same,"constitutive mRNA levels of NQO1, GCLC and GCLM",[5]; BTB09463 1-40 μmol/l or retinoic acid 0.050-2.0 μmol/l,"repressed the constitutive mRNA levels of NQO1, GCLC and GCLM in a concentration-dependent manner"
same,carmustine induction of AKR1C protein,[1]; [14],attenuated
same,sulforaphane induction of AKR1C protein,"[1]; sulforaphane 5 μM, BTB09463 5 μM or Retinoic acid 1 μM",dramatically reduced
same,carmustine induction of AKR1C protein,[6],reproduced in LS174 cells
same,suppression of tBHQ induction of luciferase,"[7]; 50 μM tBHQ + 5 μM BTB09463, 24 h",approximately 65%
same,"suppression of tBHQ-mediated induction of luciferase expression, by dosing regimen","[7]; BTB09463 2.5, 5 or 10 μM for 0, 24 or 48 hrs before 50 μM tBHQ",identical under each dosing regimen
same,carmustine-mediated induction of luciferase activity,"[7]; Carmustine 100 μM + BTB09463 5 μM or Retinoic acid 5 μM, 24 hours",completely suppress
same,pIC50,A549 cells,4.28
same,pIC50,MCF7 cells,4.55
same,reduction of sulforaphane-induced AKR1C1 mRNA,[8],50%
same,sulforaphane-induced NQO1 mRNA expression,[8],reduced to basal levels
same,carmustine over expression of AKR1C and NQO1 protein,[4]; [14],attenuated
same,sulforaphane-driven induction of NQO1 and AKR1C protein,[4]; sulforaphane 5 μM + BTB09463 5 μM,potently inhibited
O=c1oc2ccccc2c(O)c1Cc1c(O)c2ccccc2oc1=O [Dirumarol],protection conferred by Nrf2 against Fas-induced killing,Fas-induced killing,antagonise protection conferred by Nrf2 against Fas-induced killing
"CC(C)(C)c1cc(O)ccc1O [tBHQ, tert-butylhydroquinone]",Ratio (tBHQ/DMSO),[9],2.7 ± 0.1
same,Relative luciferase activity (tBHQ treated),[9]; [15],1171.6 ± 8.8
same,increase of luciferase activity,"[2]; 1 μM tBHQ, 24 h",2 fold
same,increase of luciferase activity,"[2]; 5 μM tBHQ, 24 h",5 fold
same,lag phase before increase of luciferase activity,[2]; 10 μM tBHQ alone,approximately 3 hour
same,increase of luciferase activity,"[2]; 10 μM tBHQ, 8 h",4 fold
same,increase of luciferase activity,"[2]; 10 μM tBHQ, 18 h",10 fold
same,induction of luciferase activity,"[2]; 10 μM tBHQ, 50 ng pRS-hNrf2 DNA per well (Nrf2 RNAi)",8 fold
same,induction of luciferase activity,"[2]; 10 μM tBHQ, 100 ng pRS-hNrf2 DNA per well (Nrf2 RNAi)",6 fold
same,induction of luciferase activity,"[2]; 10 μM tBHQ, control cells, no DNA in the transfection mix",13 fold and 10 fold
same,inducible level of luciferase activity,"[2]; 10 μM tBHQ, transfection with 50 ng pHyg-EF-hNrf2 per well",19 fold
same,inducible level of luciferase activity,"[2]; 10 μM tBHQ, transfection with 100 ng pHyg-EF-hNrf2",25 fold
same,induction of luciferase expression compared to DMSO control,"[2]; 50 μM tBHQ, 24 h",14 fold
same,"CD, concentration of inducting agent that doubled luciferase reporter activity","[2]; AREc32, 24 h, DMSO set at 1",1 µM
same,maximal increase of GFP reporter,[10],3 fold
same,induction of AKR1C1 mRNA,[3]; 10 μM tBHQ,approximately 15 fold
same,Ratio (tBHQ/DMSO),[11],3.6 ± 0.5
same,Relative luciferase activity (tBHQ treated),[11]; [15],140.7 ± 19.6
same,Ratio (tBHQ/DMSO),[12]; 50 μM tBHQ,52.0 ± 11.9
same,Relative luciferase activity (tBHQ treated),"[12]; 50 μM tBHQ, HepG2 cells treated with DMSO set at 1",2276.1 ± 521.1
same,induction of luciferase activity,[12]; overnight treatment with 50 μM tBHQ,up to 50 fold
same,Ratio (tBHQ/DMSO),[13],2.8 ± 0.9
same,Relative luciferase activity (tBHQ treated),[13]; [15],2.8 ± 0.9
